Data from the NIST ThermoML archive (doi:10.1016/j.jct.2015.12.001).

Assay: wn = mass fraction of the nth substance listed
Conditions: 100 kPa, Liquid, Concentric cylinders viscometry

CCN(CC)CCO [(diethylamino)ethanol] + O
viscosity [mPa·s]
Conditions	w1 = 0.3001	w1 = 0.3499	w1 = 0.4001	w1 = 0.4501	w1 = 0.4999	w1 = 0.6001
303.2 K	2.96	3.34	4.56	5.06	6.11	8.41
313.2 K	2.12	2.36	3.12	3.65	4.33	5.52
323.2 K	1.59	1.81	2.23	2.69	3.07	3.74
